Structures can show the parent of a compound that is named as a salt.
Columns and labels:
Jak2 (a.a. 828-1132) = biological target: T1, Jak2 (a.a. 828-1132) (Homo sapiens, UniProt O60674); experiment: In vitro JAK kinase assay (HTRF, phosphorylation of a biotinylated peptide), JAK2, reported as JAK2/JAK1 ratio; assay type: biochemical
T1 construct: Jak2 (a.a. 828-1132); His tag (N); made in house; host or cells: insect cells (baculovirus)

[1] = biological target: T2, human JAK1 (a.a. 837-1142) (Homo sapiens, UniProt P23458); experiment: In vitro JAK kinase assay (HTRF, phosphorylation of a biotinylated peptide), JAK1; assay type: biochemical
T2 construct: human JAK1 (a.a. 837-1142); His tag (N); made in house; host or cells: insect cells (baculovirus)
Method in brief: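 IC50s come from HTRF detection (Eu-Py20, SA-APC, 40 min binding) after 1 h RT reactions with 500 nM biotinylated peptide in Tris pH 7.8 buffer. ATP either 1 mM or Km-level, 90 μM for JAK1 and 30 μM for JAK2; enzymes are baculovirus-expressed His-tagged catalytic domains (JAK1 837-1142, JAK2 828-1132).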

[2] = Assay Conditions Km (ATP 90 μM for Jak1, 30 μM for Jak2)
[3] = Assay Conditions Km (ATP 90 μM for Jak1)

T2 sequence (P23458 849-1154): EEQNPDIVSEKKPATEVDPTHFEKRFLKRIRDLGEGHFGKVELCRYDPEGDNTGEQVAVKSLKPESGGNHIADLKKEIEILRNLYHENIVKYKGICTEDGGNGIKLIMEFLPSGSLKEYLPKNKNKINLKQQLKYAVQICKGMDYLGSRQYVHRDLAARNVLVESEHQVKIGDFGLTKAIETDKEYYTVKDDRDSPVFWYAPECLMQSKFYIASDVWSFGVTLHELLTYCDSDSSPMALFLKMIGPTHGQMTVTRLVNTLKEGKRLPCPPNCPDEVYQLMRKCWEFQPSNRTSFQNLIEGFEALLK
T1 sequence (O60674 828-1132): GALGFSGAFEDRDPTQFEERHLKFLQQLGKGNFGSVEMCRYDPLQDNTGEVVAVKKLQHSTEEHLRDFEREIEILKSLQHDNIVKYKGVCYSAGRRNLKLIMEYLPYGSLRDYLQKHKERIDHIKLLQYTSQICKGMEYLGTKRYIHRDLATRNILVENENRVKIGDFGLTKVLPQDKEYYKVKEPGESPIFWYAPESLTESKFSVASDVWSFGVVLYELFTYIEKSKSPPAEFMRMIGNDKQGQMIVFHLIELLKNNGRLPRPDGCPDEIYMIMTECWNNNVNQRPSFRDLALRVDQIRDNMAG

| Compound | JAK2/JAK1 IC50 ratio (Jak2 (a.a. 828-1132); Assay Conditions 1 mM ATP) | IC50 ([1]; Assay Conditions 1 mM ATP) [nM] | JAK2/JAK1 IC50 ratio (Jak2 (a.a. 828-1132); [2]) | IC50 [1, 3] [nM] |
| --- | --- | --- | --- | --- |
| N#CC[C@@H]([C@H]1CCN(c2ncc(CO)nc2C#N)C1)n1cc(-c2ncnc3[nH]ccc23)cn1 [Example 140, 3-((3S)-3-{(1S)-2-cyano-1-[4-(7H-pyrrolo[2,3-d]pyrimidin-4-yl)-1H-pyrazol-1-yl]ethyl}pyrrolidin-1-yl)-6-(hydroxymethyl)pyrazine-2-carbonitrile trifluoroacetate] | 17.4 | < 50 | – | – |
| COc1cccc2nc(N3CCC(C(CC#N)n4cc(-c5ncnc6[nH]ccc56)cn4)C3)oc12 (single isomer, unassigned) [Example 162, 3-[1-(7-methoxy-1,3-benzoxazol-2-yl)pyrrolidin-3-yl]-3-[4-(7H-pyrrolo[2,3-d]pyrimidin-4-yl)-1H-pyrazol-1-yl]propanenitrile] | 7.7 | < 50 | – | – |
| N#CC[C@@H]([C@H]1CCN(c2nccc(C(F)(F)F)c2F)C1)n1cc(-c2ncnc3[nH]ccc23)cn1 [Example 66, (3S)-3-{(3S)-1-[3-fluoro-4-(trifluoromethyl)pyridin-2-yl]pyrrolidin-3-yl}-3-[4-(7H-pyrrolo[2,3-d]pyrimidin-4-yl)-1H-pyrazol-1-yl] propanenitrile trifluoroacetate salt] | >20 | < 50 | – | – |
| N#CCC(C1CCN(c2cncc(Cl)n2)C1)n1cc(-c2ncnc3[nH]ccc23)cn1 (single isomer, unassigned) [1 (rac)] | – | – | 3 | < 50 |
| N#CC[C@@H]([C@H]1CCN(c2cccc(C(F)F)c2C#N)C1)n1cc(-c2ncnc3[nH]ccc23)cn1 [Example 111, 2-((S)-3-((S)-1-(4-(7H-pyrrolo[2,3-d]pyrimidin-4-yl)-1H-pyrazol-1-yl)-2-cyanoethyl)pyrrolidin-1-yl)-6-(difluoromethyl)benzonitrile trifluoroacetate salt] | 37.6 | < 50 | – | – |
| N#CCC(C1CCN(c2nc3cnccc3o2)C1)n1cc(-c2ncnc3[nH]ccc23)cn1 (single isomer, unassigned) [Example 11, 3-(1-[1,3]oxazolo[4,5-c]pyridin-2-ylpyrrolidin-3-yl)-3-[4-(7H-pyrrolo[2,3-d]pyrimidin-4-yl)-1H-pyrazol-1-yl]propanenitrile] | – | – | 2.9 | < 50 |
| N#CCC(C1CCN(c2nc3ccccc3nc2O)C1)n1cc(-c2ncnc3[nH]ccc23)cn1 (centres unmarked) [Example 43, 3-[1-(3-hydroxyquinoxalin-2-yl)pyrrolidin-3-yl]-3-[4-(7H-pyrrolo[2,3-d]pyrimidin-4-yl)-1H-pyrazol-1-yl]propanenitrile trifluoroacetate salt] | – | – | 2.5 | < 50 |
| N#CCC(C1CCN(c2nc3cccc(F)c3o2)C1)n1cc(-c2ncnc3[nH]ccc23)cn1 (single isomer, unassigned) [Example 21, 3-[1-(7-fluoro-1,3-benzoxazol-2-yl)pyrrolidin-3-yl]-3-[4-(7H-pyrrolo[2,3-d]pyrimidin-4-yl)-1H-pyrazol-1-yl]propanenitrile] | 31.8 | < 50 | – | – |
| N#CCC(C1CCN(c2ncc3c(c2C#N)S(=O)(=O)CC3)C1)n1ccc(-c2ncnc3[nH]ccc23)c1 (racemic) [Example 171-rac, 6-(3-{2-cyano-1-[3-(7H-pyrrolo[2,3-d]pyrimidin-4-yl)-1H-pyrrol-1-yl]ethyl}pyrrolidin-1-yl)-2,3-dihydrothieno[3,2-c]pyridine-7-carbonitrile 1,1-dioxide] | 21.9 | < 50 | – | – |
| N#CCC(C1CCN(c2ccc3c(n2)S(=O)(=O)CC3)C1)n1ccc(-c2ncnc3[nH]ccc23)c1 (single isomer, unassigned) [34, enantiomer 2] | 13.8 | < 50 | – | – |
| CSc1cccc(N2CCC(C(CC#N)n3cc(-c4ncnc5[nH]ccc45)cn3)C2)c1C#N (racemic) [Example 40, ±2-(3-{2-cyano-1-[4-(7H-pyrrolo[2,3-d]pyrimidin-4-yl)-1H-pyrazol-1-yl]ethyl}pyrrolidin-1-yl)-6-(methylthio)benzonitrile] | 7.1 | < 50 | – | – |
| N#CC[C@@H]([C@H]1CCN(c2ccc(F)c(F)c2C#N)C1)n1cc(-c2ncnc3[nH]ccc23)cn1 [Example 60, 6-((3S)-3-{(1S)-2-cyano-1-[4-(7H-pyrrolo[2,3-d]pyrimidin-4-yl)-1H-pyrazol-1-yl]ethyl}pyrrolidin-1-yl)-2,3-difluorobenzonitrile trifluoroacetate salt] | 6.6 | < 50 | – | – |
| N#CCC(C1CCN(c2nccc(Cl)n2)C1)n1cc(-c2ncnc3[nH]ccc23)cn1 (single isomer, unassigned) [Example 4b, 3-[1-(4-chloropyrimidin-2-yl)pyrrolidin-3-yl]-3-[4-(7H-pyrrolo[2,3-d]pyrimidin-4-yl)-1H-pyrazol-1-yl]propanenitrile] | – | – | 3.7 | < 50 |
| N#CC[C@@H]([C@H]1CCN(c2cncc(Cl)c2C#N)C1)n1cc(-c2ncnc3[nH]ccc23)cn1 [Example 64, 3-chloro-5-((3S)-3-{(1S)-2-cyano-1-[4-(7H-pyrrolo[2,3-d]pyrimidin-4-yl)-1H-pyrazol-1-yl]ethyl}pyrrolidin-1-yl) isonicotinonitrile trifluoroacetate salt] | 11 | < 50 | – | – |
| N#CCC(C1CCN(c2ncc3c(c2C#N)S(=O)(=O)CC3)C1)n1cc(-c2ncnc3[nH]ccc23)cn1 (single isomer, unassigned) [Example 172, 6-(3-{2-cyano-1-[4-(7H-pyrrolo[2,3-d]pyrimidin-4-yl)-1H-pyrazol-1-yl]ethyl}pyrrolidin-1-yl)-2,3-dihydrothieno[3,2-c]pyridine-7-carbonitrile 1,1-dioxide] | 20.0 | < 50 | – | – |
| C[S+]([O-])c1nccc(N2CCC(C(CC#N)n3cc(-c4ncnc5[nH]ccc45)cn3)C2)n1 (single isomer, unassigned) [Example 24, 3-{1-[2-(methylsulfinyl)pyrimidin-4-yl]pyrrolidin-3-yl}-3-[4-(7H-pyrrolo[2,3-d]pyrimidin-4-yl)-1H-pyrazol-1-yl]propanenitrile] | 2.5 | < 50 | – | – |
| CS(=O)(=O)c1cccc(N2CCC(C(CC#N)n3cc(-c4ncnc5[nH]ccc45)cn3)C2)n1 (single isomer, unassigned) [Example 26, 3-{1-[6-(methylsulfonyl)pyridin-2-yl]pyrrolidin-3-yl}-3-[4-(7H-pyrrolo[2,3-d]pyrimidin-4-yl)-1H-pyrazol-1-yl]propanenitrile] | 5.2 | 50 to 100 | – | – |
| N#CCC(C1CCN(c2ncc3ccsc3c2C#N)C1)n1cc(-c2ncnc3[nH]ccc23)cn1 (single isomer, unassigned) [Example 175, 6-(3-{2-cyano-1-[4-(7H-pyrrolo[2,3-d]pyrimidin-4-yl)-1H-pyrazol-1-yl]ethyl}pyrrolidin-1-yl)thieno[3,2-c]pyridine-7-carbonitrile] | 15.4 | < 50 | – | – |
| N#CCC(C1CCN(c2ncc3ccsc3c2C#N)C1)n1ccc(-c2ncnc3[nH]ccc23)c1 (racemic) [Example 176-rac, 6-(3-{2-cyano-1-[3-(7H-pyrrolo[2,3-d]pyrimidin-4-yl)-1H-pyrrol-1-yl]ethyl}pyrrolidin-1-yl)thieno[3,2-c]pyridine-7-carbonitrile] | 53.3 | < 50 | – | – |
| N#CCC(C1CCN(c2ccc3c(n2)[S+]([O-])CC3)C1)n1cc(-c2ncnc3[nH]ccc23)cn1 (single isomer, unassigned) [Example 28, 3-[1-(1-oxido-2,3-dihydrothieno[2,3-b]pyridin-6-yl)pyrrolidin-3-yl]-3-[4-(7H-pyrrolo[2,3-d]pyrimidin-4-yl)-1H-pyrazol-1-yl]propanenitrile] | 4 | < 50 | – | – |
| N#CCC(C1CCN(c2scnc2C#N)C1)n1ccc(-c2ncnc3[nH]ccc23)c1 (racemic) [Example 149-1, 5-(3-{2-cyano-1-[3-(7H-pyrrolo[2,3-d]pyrimidin-4-yl)-1H-pyrrol-1-yl]ethyl}pyrrolidin-1-yl)-1,3-thiazole-4-carbonitrile] | 9.9 | < 50 | – | – |
| CC(C)Nc1ccnc(N2CCC(C(CC#N)n3cc(-c4ncnc5[nH]ccc45)cn3)C2)n1 (centres unmarked) [Example 7, 3-{1-[4-(isopropylamino)pyrimidin-2-yl]pyrrolidin-3-yl}-3-[4-(7H-pyrrolo[2,3-d]pyrimidin-4-yl)-1H-pyrazol-1-yl]propanenitrile] | – | – | 4.7 | < 50 |
| N#CCC(C1CCN(c2scc(C#N)c2C#N)C1)n1ccc(-c2ncnc3[nH]ccc23)c1 (single isomer, unassigned) [81 enantiomer 1] | 40.0 | < 50 | – | – |
| N#CCC(C1CCN(c2ncc3ccoc3c2C#N)C1)n1cc(-c2ncnc3[nH]ccc23)cn1 (single isomer, unassigned) [Example 169, 6-(3-{2-cyano-1-[4-(7H-pyrrolo[2,3-d]pyrimidin-4-yl)-1H-pyrazol-1-yl]ethyl}pyrrolidin-1-yl)furo[3,2-c]pyridine-7-carbonitrile] | >13.3 | < 50 | – | – |
| N#CC[C@@H]([C@H]1CCN(c2ncc(C#N)cc2F)C1)n1cc(-c2ncnc3[nH]ccc23)cn1 [Example 107, 6-((S)-3-((S)-1-(4-(7H-pyrrolo[2,3-d]pyrimidin-4-yl)-1H-pyrazol-1-yl)-2-cyanoethyl)pyrrolidin-1-yl)-5-fluoronicotinonitrile trifluoroacetate salt] | 4.8 | < 50 | – | – |

Reference: patent US8716303B2, “N-(hetero)aryl-pyrrolidine derivatives of pyrazol-4-yl-pyrrolo[2,3-d]pyrimidines and pyrrol-3-yl-pyrrolo[2,3-d]pyrimidines as janus kinase inhibitors” (Incyte Corporation, priority 2009, dated 2014)
